Values after ≈ are worked out from the molar mass of the structure shown. Like-named read-outs stand apart in the source and are kept apart here.
Key:
CMY-178 = target: T1, CMY-178 (Klebsiella pneumoniae, UniProt Q48434, DEL310-312/N366I/N90T); experiment: Ki by direct competition assay with nitrocefin, CMY-178; assay type: biochemical, Escherichia coli; details: for Ki: CMY-178, competition with 100 μM nitrocefin, 2-min incubation, mean ± SD; for Increase of Ki value of CMY-178 compared with CMY-172: CMY-178 vs CMY-172
T1 construct: were amplified without a signal peptide and cloned into the pET28a; His8 (N); made in house; host or cells: E. coli BL21(DE3)
Description: (§1) blaCMYs (including blaCMY-2, blaCMY-172, and blaCMY-178) were amplified without a signal peptide and cloned into the pET28a, which led to the introduction of an N-terminal His8-Tag.The recombinant plasmids were transformed into E. coli BL21(DE3) and selected using Sanger sequencing. Lysogenic broth containing 50 μg/mL kanamycin was inoculated with transformants and grown to reach an OD600 of 0.6. A final concentration of 1 mM isopropyl-β-D-thiogalactopyranoside (IPTG) was added into the resulting culture, which was shaken at 18°C overnight. The culture broth was centrifuged to harvest bacteria. The pellet was resuspended in lysis buffer (50 mM Tris-HCl and 300 mM NaCl (pH 7.5)) and disrupted using a JN-02C French press (JNBIO, Guangzhou, China) at 1,100 bar. Then, the cell debris was removed by centrifugation at 11,000 rpm for 40 min at 4°C. The supernatant was added to an Ni column, and the absorbed protein was eluted by the eluent buffer (lysis buffer with 300 mM imidazole).
(§2) Enzymatic activities were measured using a D8 UV-visible spectrophotometer (Rumqee, Shanghai, China) in phosphate-buffered saline (PBS; pH 7.2) at room temperature. Substrates tested included nitrocefin, ceftazidime, and avibactam. The extinction coefficient and wavelength of nitrocefin are 17,400 M^−1 · cm^−1 and 482 nm, respectively. […] The initial reaction velocities (v) were measured and Ki values were calculated by fitting data into equation 1 with GraphPad Prism v9.0.0 ([37]). (1) v=Vmax[S]/[S]+Km NCF (1+[I]/Ki)

CMY-2 = target: T2, CMY-2 (Klebsiella pneumoniae, UniProt Q48434); experiment: Ki by direct competition assay with nitrocefin, CMY-2; assay type: biochemical
T2 construct: were amplified without a signal peptide and cloned into the pET28a; His8 (N); made in house; host or cells: E. coli BL21(DE3)
Description: as §1
as §2, with “avibactam.” for “avibactam. The extinction coefficient and wavelength of nitrocefin are 17,400 M^−1 · cm^−1 and 482 nm, respectively.”, “(1) v=Vmax[S]/[S]+Km NCF (1+[I]/Ki)” left out

E. coli DH5α = experiment: MIC by agar dilution, E. coli DH5α; assay type: cell-based; details: Escherichia coli
Description: (§3) Antimicrobial susceptibility testing was performed and interpreted according to the Clinical and Laboratory Standards Institute (CLSI) guidelines and breakpoints (M100, 31st edition) by the agar dilution method. E. coli ATCC 25922 and K. pneumoniae ATCC 700603 served as control strains.
(§4) The antibiotics we used included meropenem (Hanhui Pharmaceutical Co., Ltd., China), imipenem (Merck Sharp & Dohme Corp., USA), cefepime (Jiangsu Hengrui Pharmaceutical Co., Ltd., China), piperacillin (Suzhou Erye Pharmaceutical Co., Ltd., China), ceftazidime (Guangdong Jincheng Jinsu Pharmaceutical Co., Ltd., China), tazobactam (Meilunbio, China), avibactam (MedChemExpress, USA), aztreonam (Sigma-Aldrich, USA), amikacin (Meilunbio), cefuroxime (Esseti Farmaceutici S.r.l., Italy), fosfomycin (Harbin Pharmaceutical Group Co., Ltd. China), levofloxacin (Daiichi Sankyo Company Limited, Beijing, China), and cefotaxime (North China Pharmaceutical Hebei Huamin Pharmaceutical Co., Ltd., China).

E. coli J53-AR13438 = experiment: MIC by agar dilution, conjugant containing pAR13438_2; assay type: cell-based; details: Escherichia coli, J53AR13438, E. coli J53-AR13438 (blaCMY-178)
Description: as §3
(§5) Conjugation experiments were performed by filter mating using sodium-azide-resistant E. coli J53 as the recipient, as described previously. Transconjugants were selected with MH agar containing 100 μg/mL sodium azide and 4 μg/mL ceftazidime-avibactam; furthermore, transconjugants were named J53-AR13438 and J53-KPCZA02, respectively. We compared genomes of AR13438 and J53 to select a unique gene (gtrA) to J53. […] The primers used for PCR were gtrA-F, gtrA-R, CMY-F, and CMY-R (Table S1). The transfer frequencies were calculated as the number of transconjugants (CFU/mL) divided by the number of recipients (CFU/mL). Donors and recipients were mixed at 1:1 for the transfer frequency experiment. S1-PFGE and Southern blotting were performed to define the location of blaCMY-178 and confirm the transmission of the plasmid as described previously ([35]). The MIC profiles of transconjugants were also determined by the agar dilution method.

CMY-172 = target: T3, CMY-172 (Klebsiella pneumoniae, UniProt Q48434, DEL310-312/N366I); experiment: Ki by direct competition assay with nitrocefin, CMY-172; assay type: biochemical; details: competition with 100 μM nitrocefin, 2-min incubation, mean ± SD
T3 construct: were amplified without a signal peptide and cloned into the pET28a; His8 (N); made in house; host or cells: E. coli BL21(DE3)
Description: as §1
as §2, with “avibactam.” for “avibactam. The extinction coefficient and wavelength of nitrocefin are 17,400 M^−1 · cm^−1 and 482 nm, respectively.”, “(1) v=Vmax[S]/[S]+Km NCF (1+[I]/Ki)” left out

[1] = system: E. coli DH5α-pCR2.1-CMY-178; experiment: MIC by agar dilution, transformant containing blaCMY-178; assay type: cell-based, Escherichia coli
Description: as §3, §4
(§6) The blaCMY cloning was performed using a TA cloning kit (Invitrogen, Shanghai, China). The blaCMY-178 gene combined with its predicted promoter was amplified from isolate AR13438. Then, the blaCMY-178 gene was cloned into the linearized vector pCR2.1 using T4 DNA ligase (Invitrogen). The blaCMY-172 gene was cloned from KPCZA02 with the same method. The resulting plasmids were chemically transformed into E. coli DH5α. The positive transformants were identified by blue-white screening in MH agar containing 50 μg/mL kanamycin and were further confirmed by Sanger sequencing. The pCR2.1 blank vector was also transformed into E. coli DH5α as a control. The primers used for cloning were CMY-F and CMY-R (see Table S2 in the supplemental material). Relative CMY expression was measured by reverse transcription-quantitative PCR as described previously ([34]). Specific quantitative PCR (qPCR) primers (q-recA-F/R and q-CMY-F/R) were designed (Table S2).

E. coli J53-KPCZA02 = experiment: MIC by agar dilution, conjugant containing pKPCZA02_4; assay type: cell-based; details: Escherichia coli, J53KPCZA02, E. coli J53-KPCZA02 (blaCMY-172)
Description: as §3, §5

[2] = system: E. coli DH5α-pCR2.1-CMY-2; experiment: MIC by agar dilution, transformant containing blaCMY-2; assay type: cell-based; details: Escherichia coli
E. coli strain AR13438 = experiment: MIC by agar dilution, clinical isolate AR13438; assay type: cell-based, Escherichia coli; details: Escherichia coli; AR13438, clinical E. coli isolate (blaCMY-178, blaTEM-1, blaCTX-M-27); agar dilution
Description: as §3, §4

E. coli J53 = experiment: MIC by agar dilution, recipient E. coli J53; assay type: cell-based; details: Escherichia coli
Description: as §3, §4
Conjugation experiments were performed by filter mating using sodium-azide-resistant E. coli J53 as the recipient, as described previously. Transconjugants were selected with MH agar containing 100 μg/mL sodium azide and 4 μg/mL ceftazidime-avibactam; furthermore, transconjugants were named J53-AR13438 and J53-KPCZA02, respectively. We compared genomes of AR13438 and J53 to select a unique gene (gtrA) to J53. The blaCMY-178-postive transconjugants were confirmed by PCR and MALDI-TOF MS (see Fig. S9 in the supplemental material). The primers used for PCR were gtrA-F, gtrA-R, CMY-F, and CMY-R (Table S1). The transfer frequencies were calculated as the number of transconjugants (CFU/mL) divided by the number of recipients (CFU/mL). Donors and recipients were mixed at 1:1 for the transfer frequency experiment. S1-PFGE and Southern blotting were performed to define the location of blaCMY-178 and confirm the transmission of the plasmid as described previously ([35]). The MIC profiles of transconjugants were also determined by the agar dilution method.

[3] = system: E. coli DH5α-pCR2.1-CMY-172; experiment: MIC by agar dilution, transformant containing blaCMY-172; assay type: cell-based; details: Escherichia coli
Description: as §3, §4, §6

[4] = system: K. pneumoniae isolate KPCZA02; experiment: microbe, parasite or virus in culture; assay type: cell-based; details: Klebsiella pneumoniae
Description: as §3

E. coli DH5α-pCR2.1 = experiment: MIC by agar dilution, DH5α with blank vector pCR2.1; assay type: cell-based; details: Escherichia coli
Description: as §3, §4, §6

**Q.** CC(C)(O/N=C(\C(=O)N[C@@H]1C(=O)N2C(C(=O)[O-])=C(C[n+]3ccccc3)CS[C@H]12)c1csc(N)n1)C(=O)O [CAZ, ceftazidime] was tested. Which Ki (CMY-178) did it give?
**A.** The Ki was 9.27 nM.

**Q.** What about the “Increase of Ki value of CMY-178 compared with CMY-172” value (CMY-178) of the same compound?
**A.** The value was ~ 5 fold.

**Q.** And the Ki (CMY-2; CMY-2, competition with 100 μM nitrocefin, 2-min incubation, mean ± SD, read-out: Ki)?
**A.** The Ki was 32.1 nM.

**Q.** What about the MIC (E. coli DH5α) of the same compound?
**A.** Its MIC is 0.25 µg/mL (≈ 0.457 µM).

**Q.** And the MIC (E. coli J53-AR13438)?
**A.** Its MIC is 1020 µg/mL (≈ 1870 µM).

**Q.** And the Ki (CMY-172)?
**A.** Its Ki is 1.06 nM.

**Q.** And the MIC ([1]; Escherichia coli, E. coli DH5α-pCR2.1-CMY-178, agar dilution)?
**A.** Its MIC is over 2050 µg/mL.

**Q.** And the “Increase of MIC by blaCMY-178 compared with blaCMY-172” value ([1]; transformants in E. coli DH5α)?
**A.** The value was “over 4 fold”.

**Q.** And the MIC (E. coli J53-KPCZA02)?
**A.** The MIC was 512 µg/mL (≈ 937 µM).

**Q.** What about the MIC [2] of the same compound?
**A.** The MIC was 256 µg/mL (≈ 468 µM).

**Q.** And the MIC (E. coli strain AR13438)?
**A.** The MIC was 2050 µg/mL (≈ 3750 µM).

**Q.** What about the MIC (E. coli J53) of the same compound?
**A.** The MIC was 0.25 µg/mL (≈ 0.457 µM).

**Q.** What about the MIC [3] of the same compound?
**A.** Its MIC is 512 µg/mL (≈ 937 µM).

**Q.** And the MIC [4]?
**A.** The MIC was 2050 µg/mL (≈ 3750 µM).

**Q.** And the MIC (E. coli DH5α-pCR2.1)?
**A.** Its MIC is 0.25 µg/mL (≈ 0.457 µM).

**Q.** For C[C@]1(Cn2ccnn2)[C@H](C(=O)O)N2C(=O)C[C@H]2S1(=O)=O [TAZ, tazobactam], which Ki (CMY-178) is on record?
**A.** Its Ki is 2490 ± 510 nM.

**Q.** What about the “Increase of Ki value of CMY-178 compared with CMY-172” value (CMY-178) of the same compound?
**A.** Its value is “less than 2 fold”.

**Q.** What about the Ki (CMY-2) of the same compound?
**A.** The Ki was 760 ± 70 nM.

**Q.** And the Ki (CMY-172)?
**A.** Its Ki is 2120 ± 340 nM.

— paper PMC10100771, “A Novel CMY Variant Confers Transferable High-Level Resistance to Ceftazidime-Avibactam in Multidrug-Resistant Escherichia coli” (Microbiology Spectrum, 2023)
